Results on two compounds are retold here after patent US11077114B2, “Stabilized formulations of CNS compounds” (Supernus Pharmaceuticals, Inc., priority 2010, dated 2021).

For data set [1] the following is noted: cited from earlier work.
Data set [2] in a line: pH dependent solution state stability in phosphate buffer at 37° C. The class given is physicochemical. The settings on record: 24 hour exposure.
Data set [3] in a line: Molindone hydrochloride solubility profile at ambient conditions. In kind it is physicochemical. The settings on record: acidic to slightly acidic media versus neutral to slightly alkaline pH; FIG. 1. The source says:
As a weakly basic drug, molindone is typically included into formulations in the form of a salt, such as chloride, sulfate, phosphate, monohydrogenphosphate, dihydrogenphosphate, bromide, iodide, acetate, propionate, decanoate, caprylate, formate, oxalate, malonate, succinate, fumarate, maleate, citrate, lactate, tartrate, methanesulfonate, mandelate, and the like.

Counter-ions that a name gives are not always drawn.

As for `CCc1c(C)[nH]c2c1C(=O)C(CN1CCOCC1)CC2` (stereo not drawn) [Molindone hydrochloride], the tmax in data set [1] (following oral administration) was 1 to 1.5 h. Moreover, in data set [1] (oral dose), the plasma elimination half-life entry is on record as “about 2 hours”.
With `CCc1c(C)[nH]c2c1C(=O)C(CN1CCOCC1)CC2` (stereo not drawn) [Molindone, 3-Ethyl-6,7-dihydro-2-methyl-5-(morpholinomethyl)indol-4(5H)-one], the loss is 3% in data set [2] (pH 6.0 phosphate buffer), 6.4% in data set [2] (pH 6.8 phosphate buffer) and 7.5% in data set [2] (pH 7.5 phosphate buffer). Moreover, the “solubility versus pH (in words)” value in data set [3] is recorded as “greater solubility”.
